From ChEMBL document CHEMBL1135347, “Spirocyclic NK(1) antagonists II: [4.5]-spiroethers” (Bioorg Med Chem Lett, 2002)

Key:
Gerbillinae [1] = assay: Ability to inhibit the foot tapping in gerbil immediately following central infusion of GR-73632 (agonist), 5 min after intravenous administration of compound; assay type: functional; settings: read-out: ID50 (the source's name)
Substance-P receptor = Substance-P receptor (Homo sapiens, UniProt P25103); assay: Displacement of [125I]-labeled substance P from the cloned human Tachykinin receptor 1 expressed in CHO cells; assay type: cell-based
Mustela putorius furo [2] = assay: Compound was tested for inhibition of emetic response in ferret by administering intravenously following emetogen challenge after 3 min (iv); assay type: functional
Mustela putorius furo [3] = assay: Compound was tested for inhibition of emetic response in ferret by administering perorally following emetogen challenge after 60 min (po); assay type: functional
Gerbillinae [4] = assay: Ability to inhibit the foot tapping in gerbil immediately following central infusion of GR-73632 (agonist), 5 min after intravenous administration of compound (1 mg/kg); assay type: functional
[5] = Bioavailability in dog; assay type: ADME, organism-based, Canis lupus familiaris; settings: in vivo
[6] = Bioavailability in rat; assay type: ADME, organism-based; settings: in vivo
[7] = Half-life in rat; assay type: ADME, organism-based; settings: in vivo
[8] = Half-life in Dog; assay type: ADME, organism-based, Canis lupus familiaris; settings: in vivo

Sequence of Substance-P receptor (P25103 whole entry): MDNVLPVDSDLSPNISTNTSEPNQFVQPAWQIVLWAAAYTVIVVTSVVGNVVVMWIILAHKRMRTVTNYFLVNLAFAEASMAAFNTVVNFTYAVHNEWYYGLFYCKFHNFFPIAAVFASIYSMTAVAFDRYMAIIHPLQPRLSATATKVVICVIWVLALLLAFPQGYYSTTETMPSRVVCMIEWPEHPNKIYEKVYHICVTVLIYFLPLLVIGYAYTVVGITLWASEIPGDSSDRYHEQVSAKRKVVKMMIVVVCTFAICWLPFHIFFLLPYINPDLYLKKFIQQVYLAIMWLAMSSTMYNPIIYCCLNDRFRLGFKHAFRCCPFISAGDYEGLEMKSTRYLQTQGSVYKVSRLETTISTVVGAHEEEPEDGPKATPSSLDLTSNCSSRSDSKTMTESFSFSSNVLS

SMILES	IC50 (Substance-P receptor) [nM]	ED50 (Gerbillinae [1]) [mg/kg]	other results
c1ccc([C@H]2COC3(CCCN[C@H]3c3ccccc3)C2)cc1 (stereo not given in full)	133		
COc1ccc(OC(F)(F)F)cc1[C@H]1COC2(CCCN[C@H]2c2ccccc2)C1 (stereo not given in full)	0.3	0.3	ID90 (Mustela putorius furo [2]): 1 mg/kg; ID90 (Mustela putorius furo [3]): 3 mg/kg
COc1ccc(OC(F)(F)F)cc1C1=CC2(CCCNC2c2ccccc2)OC1 (stereo not given)	0.35	0.2	
COc1ccccc1[C@H]1COC2(CCCNC2c2ccccc2)C1 (stereo not given in full)	6.5		
COc1ccc(OC(F)(F)F)cc1[C@H]1COC2(CCCN(Cc3nc[nH]n3)C2c2ccccc2)C1 (stereo not given in full)	0.89		Inhibition (Gerbillinae [4]): 45%
COc1ccccc1C1=CC2(CCCNC2c2ccccc2)OC1 (stereo not given)	49		

Stronger by IC50 (Substance-P receptor), values ahead:

IC50 (Substance-P receptor) [nM]	SMILES	ED50 (Gerbillinae [1]) [mg/kg]	other results
0.11	COc1ccc(-n2nnnc2C(F)(F)F)cc1[C@H]1COC2(CCCNC2c2ccccc2)C1 (stereo not given in full)	0.1	bioavailability [5]: 79%; bioavailability [6]: 16%; ID90 (Mustela putorius furo [2]): 0.2 mg/kg; half-life [7]: 102 min; half-life [8]: 162 min; ID90 (Mustela putorius furo [3]): 1 mg/kg
0.11	COc1ccc(-n2nnnc2C(F)(F)F)cc1[C@H]1COC2(CCCN(Cc3c[nH]cn3)C2c2ccccc2)C1 (stereo not given in full)	0.5	
0.1	COc1ccc(-n2nnnc2C(F)(F)F)cc1[C@H]1COC2(CCCN(Cc3n[nH]c(O)n3)C2c2ccccc2)C1 (stereo not given in full)		Inhibition (Gerbillinae [4]): 6%
0.08	COc1ccc(-n2nnnc2C(F)(F)F)cc1C1=CC2(CCCN[C@H]2c2ccccc2)OC1 (stereo not given in full)	0.1	
